Like-named read-outs stand apart in the source and are kept apart here.
What was measured:
[1] = target: T1, ASGPR receptor on the cell surface (HepG2 cells) (Homo sapiens, UniProt P07306); assay: Ternary complex formation assay (flow cytometry, HepG2); format: cell-based
T1 construct: host or cells: HepG2
T1 sequence (P07306 1-291): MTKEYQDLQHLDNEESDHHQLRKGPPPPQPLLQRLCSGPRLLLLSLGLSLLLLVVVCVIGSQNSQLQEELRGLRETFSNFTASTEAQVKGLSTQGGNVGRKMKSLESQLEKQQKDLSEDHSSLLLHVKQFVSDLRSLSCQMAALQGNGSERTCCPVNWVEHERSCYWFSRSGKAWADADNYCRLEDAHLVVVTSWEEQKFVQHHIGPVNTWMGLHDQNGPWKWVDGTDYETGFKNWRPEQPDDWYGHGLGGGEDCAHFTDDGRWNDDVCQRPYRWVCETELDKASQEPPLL
T1 sequence (P07307 1-311 partner): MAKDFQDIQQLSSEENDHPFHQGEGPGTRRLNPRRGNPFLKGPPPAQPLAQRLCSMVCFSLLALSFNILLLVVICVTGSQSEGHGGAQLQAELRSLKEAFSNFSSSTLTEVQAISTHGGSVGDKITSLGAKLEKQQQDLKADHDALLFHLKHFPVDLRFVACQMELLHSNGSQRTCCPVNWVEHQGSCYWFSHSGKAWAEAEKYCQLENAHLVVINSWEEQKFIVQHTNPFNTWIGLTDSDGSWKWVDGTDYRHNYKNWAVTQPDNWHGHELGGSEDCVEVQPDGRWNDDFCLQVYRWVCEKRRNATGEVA
From the text: The ternary complex formation assay is designed to identify the concentration of Degrader required to form a complex between the degrader, a constant concentration of fluorescently-labeled antibody and the ASGPR receptor on the cell surface. The peak mean fluorescence intensity (MFI) occurs at the optimal degrader concentration for ternary complex formation. Sub-optimal concentrations of degrader (too much or too little) results in fewer complexes formed and a reduced […].
Human IgG (Sigma-Aldrich, 14506) was covalently labeled with Alexa Fluor 488 using the Alexa Fluor™ 488 Protein Labeling Kit (Thermo Fisher, A10235) following the manufacturer's instructions. HepG2 cells (ATCC, HIB-8065) were cultured to about 70% confluence and harvested by trypsinization. Single cell suspensions of HepG2 cells were plated in 96 well plates at 1×10^5 cells/well in cell culture media (DMEM supplemented with […]) and placed at 4° C. For studies using human IgG, cells were incubated with 100 nM AF488-labeled anti-human IgG and serial dilutions of IgG-based degrader for 1 hour at 4° C. For studies using DNP, cells were incubated with 100 nM AF488-labeled polyclonal rabbit anti-dinitrophenyl (DNP) antibodies (ThermoFisher) and serial dilutions of DNP-based degrader for 1 hour at 4° C. After washing once with ice-cold PBS containing 0.1% BSA and 0.1% sodium azide, cells were resuspended in 150 uL PBS+0.1% BSA and cell-associated AF488 fluorescence was measured by flow cytometry using the iQue® Screener PLUS Flow Cytometer (IntelliCyt).

ASGPR = target: T2, ASGPR (Homo sapiens, UniProt P07306); assay: Affinity to ASGPR by surface plasmon resonance (SPR)
T2 sequence (P07306 1-291): T1 sequence (P07306 1-291)

HepG2 cells = assay: Cellular uptake assay of AF488-labeled antibody (HepG2); format: cell-based
Method in brief: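 HepG2 cells given 100 nM AF488-labeled human IgG or DNP antibody plus serial dilutions of matching degrader (0.1% DMSO final), 6 h at 37° C. Methanol-fixed, DAPI-stained and imaged by high-content analysis. Value is the fraction of AF488-positive cells over total DAPI-counted cells.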

[2] = HepG2 cells, read-out: Uptake EC50
[3] = Ternary Complex EC50 (nM), HepG2 cells, 100 nM AF488-labeled antibody, 1 hour at 4° C., class symbols
[4] = Homo sapiens, HepG2, 6 h, read-out: Uptake Assay EC50 (nM)

Compound	EC50 [1] [nM]	Kd (ASGPR) [nM]	EC50 (HepG2 cells; [2]) [nM]	EC50 ([1]; HepG2 cells, 100 nM AF488-labeled antibody, 1 hour at 4° C., class symbols, read-out: Ternary Complex EC50) [nM]	EC50 (HepG2 cells; HepG2 cells, 100 nM AF488-labeled antibody, 37° C. for 6 hours, class symbols, read-out: Uptake Assay EC50) [nM]	EC50 [1, 3] [nM]	EC50 (HepG2 cells; [4]) [nM]
CC(C)C[C@@H]1NC(=O)[C@H](Cc2c[nH]cn2)NC(=O)[C@H](Cc2c[nH]c3ccccc23)NC(=O)[C@H](C)NC(=O)[C@@H]2CSSC[C@H](NC(=O)[C@H](Cc3c[nH]c4ccccc34)NC(=O)[C@H](C(C)C)NC(=O)[C@H](CC(C)C)NC(=O)[C@H](CCC(=O)O)NC(=O)CNC1=O)C(=O)N[C@@H]([C@@H](C)O)C(=O)N1CCC[C@@H]1C(=O)N1C[C@@H](NC(=O)CNC(COCCC(=O)NCCOCCOCCOCCO[C@@H]3O[C@H](CO)[C@H](O)[C@H](O)[C@H]3Nc3cncc(C(F)(F)F)n3)COCCC(=O)NCCOCCOCCOCCO[C@@H]3O[C@H](CO)[C@H](O)[C@H](O)[C@H]3Nc3cncc(C(F)(F)F)n3)C[C@H]1C(=O)N[C@@H](CC(=O)O)C(=O)N2 [Compound 71]	< 100	< 100	< 100	–	–	–	–
CC(C)C[C@@H]1NC(=O)[C@H](Cc2c[nH]cn2)NC(=O)[C@H](Cc2c[nH]c3ccccc23)NC(=O)[C@H](C)NC(=O)[C@@H]2CSSC[C@H](NC(=O)[C@H](Cc3c[nH]c4ccccc34)NC(=O)[C@H](C(C)C)NC(=O)[C@H](CC(C)C)NC(=O)[C@H](CCC(=O)O)NC(=O)CNC1=O)C(=O)N[C@@H]([C@@H](C)O)C(=O)N1CCC[C@@H]1C(=O)N1C[C@@H](NC(=O)COCCOCCOCC(=O)NC(COCCC(=O)NCCOCCOCCOCCOC[C@H]3OC[C@H](Nc4nccc(C(F)(F)F)n4)[C@@H](O)[C@H]3O)COCCC(=O)NCCOCCOCCOCCOC[C@H]3OC[C@H](Nc4nccc(C(F)(F)F)n4)[C@@H](O)[C@H]3O)C[C@H]1C(=O)N[C@@H](CC(=O)O)C(=O)N2 [Compound 38]	–	< 100	–	< 100	< 100	–	–
O=[N+]([O-])c1ccc(NCCOCCOCCOCCOC[C@@]23CO[C@@H](O2)[C@H](Nc2nc(Cl)ns2)[C@@H](O)[C@H]3O)c([N+](=O)[O-])c1 [Compound 27, (1S,2R,3R,4R,5S)-4-((3-chloro-1,2,4-thiadiazol-5-yl)amino)-1-(13-((2,4-dinitrophenyl)amino)-2,5,8,11-tetraoxatridecyl)-6,8-dioxabicyclo[3.2.1]octane-2,3-diol]	–	< 100	–	–	–	< 100	< 100
CC(C)C[C@@H]1NC(=O)[C@H](Cc2c[nH]cn2)NC(=O)[C@H](Cc2c[nH]c3ccccc23)NC(=O)[C@H](C)NC(=O)[C@@H](NC(=O)[C@H](CC(=O)O)NC(=O)CCOCCOCCOCCOCCNC(=O)CCCc2cn(CCCCCC(=O)NC(COCCC(=O)NCCOCCOCCOCCOC[C@H]3OC[C@H](Nc4nccc(C(F)(F)F)n4)[C@@H](O)[C@H]3O)(COCCC(=O)NCCOCCOCCOCCOC[C@H]3OC[C@H](Nc4nccc(C(F)(F)F)n4)[C@@H](O)[C@H]3O)COCCC(=O)NCCOCCOCCOCCOC[C@H]3OC[C@H](Nc4nccc(C(F)(F)F)n4)[C@@H](O)[C@H]3O)nn2)CSSC[C@@H](C(=O)N[C@H](C(N)=O)[C@@H](C)O)NC(=O)[C@H](Cc2c[nH]c3ccccc23)NC(=O)[C@H](C(C)C)NC(=O)[C@H](CC(C)C)NC(=O)[C@H](CCC(=O)O)NC(=O)CNC1=O [Compound 90]	< 100	< 100	< 100	–	–	–	–
CC(C)C[C@@H]1NC(=O)[C@H](Cc2c[nH]cn2)NC(=O)[C@H](Cc2c[nH]c3ccccc23)NC(=O)[C@H](C)NC(=O)[C@@H](NC(=O)[C@H](CC(=O)O)NC(=O)CCOCCOCCOCCOCCNC(=O)CCCc2cn(CCCCCC(=O)NC(COCCC(=O)NCCOCCOCCOCCOC[C@H]3OC[C@H](Nc4nccc(C(F)(F)F)n4)C[C@H]3O)COCCC(=O)NCCOCCOCCOCCOC[C@H]3OC[C@H](Nc4nccc(C(F)(F)F)n4)C[C@H]3O)nn2)CSSC[C@@H](C(=O)N[C@H](C(N)=O)[C@@H](C)O)NC(=O)[C@H](Cc2c[nH]c3ccccc23)NC(=O)[C@H](C(C)C)NC(=O)[C@H](CC(C)C)NC(=O)[C@H](CCC(=O)O)NC(=O)CNC1=O [Compound 88]	> 1000	> 1000	> 1000	–	–	–	–
O=C(CCOCC(COCCC(=O)NCCOCCOCCOCCOC[C@@]12CO[C@@H](O1)[C@H](Nc1nccc(C(F)(F)F)n1)[C@@H](O)[C@H]2O)NC(=O)COCCOCCOCCNc1ccc([N+](=O)[O-])cc1[N+](=O)[O-])NCCOCCOCCOCCOC[C@@]12CO[C@@H](O1)[C@H](Nc1nccc(C(F)(F)F)n1)[C@@H](O)[C@H]2O [Compound 31, 3,3′-((2-(2-(2-(2-(2-((2,4-dinitrophenyl)amino)ethoxy)ethoxy)ethoxy)acetamido)propane-1,3-diyl)bis(oxy))bis(N-(1-((1S,2R,3R,4R,5S)-2,3-dihydroxy-4-((4-(trifluoromethyl)pyrimidin-2-yl)amino)-6,8-dioxabicyclo[3.2.1]octan-1-yl)-2,5,8,11-tetraoxatridecan-13-yl)propanamide)]	–	< 100	–	–	–	< 100	< 100
O=C(CCOCCNC(=O)COCCOCCOCCNc1ccc([N+](=O)[O-])cc1[N+](=O)[O-])NCCOCCOCCOCCOC[C@@]12CO[C@@H](O1)[C@H](Nc1nc(Cl)ns1)[C@@H](O)[C@H]2O [Compound 29, N-(1-((1S,2R,3R,4R,5S)-4-((3-chloro-1,2,4-thiadiazol-5-yl)amino)-2,3-dihydroxy-6,8-dioxabicyclo[3.2.1]octan-1-yl)-2,5,8,11-tetraoxatridecan-13-yl)-3-((14-((2,4-dinitrophenyl)amino)-4-oxo-6,9,12-trioxa-3-azatetradecyl)oxy)propanamide]	–	100 to 500	–	–	–	< 100	< 100
O=C(CCOCC(COCCC(=O)NCCOCCOCCOCCOC[C@@]12CO[C@@H](O1)[C@H](Nc1nc(Cl)ns1)[C@@H](O)[C@H]2O)NC(=O)COCCOCCOCCNc1ccc([N+](=O)[O-])cc1[N+](=O)[O-])NCCOCCOCCOCCOC[C@@]12CO[C@@H](O1)[C@H](Nc1nc(Cl)ns1)[C@@H](O)[C@H]2O [Compound 30, 3,3′-((2-(2-(2-(2-(2-((2,4-dinitrophenyl)amino)ethoxy)ethoxy)ethoxy)acetamido)propane-1,3-diyl)bis(oxy))bis(N-(1-((1S,2R,3R,4R,5S)-4-((3-chloro-1,2,4-thiadiazol-5-yl)amino)-2,3-dihydroxy-6,8-dioxabicyclo[3.2.1]octan-1-yl)-2,5,8,11-tetraoxatridecan-13-yl)propanamide)]	–	< 100	–	–	–	< 100	< 100
CC(C)C[C@@H]1NC(=O)[C@H](Cc2c[nH]cn2)NC(=O)[C@H](Cc2c[nH]c3ccccc23)NC(=O)[C@H](C)NC(=O)[C@@H]2CSSC[C@H](NC(=O)[C@H](Cc3c[nH]c4ccccc34)NC(=O)[C@H](C(C)C)NC(=O)[C@H](CC(C)C)NC(=O)[C@H](CCC(=O)O)NC(=O)CNC1=O)C(=O)N[C@@H]([C@@H](C)O)C(=O)N1CCC[C@@H]1C(=O)N1C[C@@H](NC(=O)CCOCCOCCOCCOCCNC(=O)CCCc3cn(CCCCCC(=O)NC(COCCC(=O)NCCOCCOCCOCCO[C@@H]4O[C@H](CO)[C@H](O)[C@H](O)[C@H]4Nc4cncc(C(F)(F)F)n4)COCCC(=O)NCCOCCOCCOCCO[C@@H]4O[C@H](CO)[C@H](O)[C@H](O)[C@H]4Nc4cncc(C(F)(F)F)n4)nn3)C[C@H]1C(=O)N[C@@H](CC(=O)O)C(=O)N2 [Compound 82]	< 100	–	< 100	–	–	–	–

— patent US12091402B2 (Avilar Therapeutics, Inc., priority 2021, dated 2024)
